Experimental data as given in PMC9260921, “Design and Synthesis of Carbothioamide/Carboxamide-Based Pyrazoline Analogs as Potential Anticancer Agents: Apoptosis, Molecular Docking, ADME Assay, and DNA Binding Studies” (ACS Omega, 2022).
Values after ≈ are worked out from the molar mass of the structure shown.

What was measured:
[1] = test system: breast cancer cell line (MCF-7); parameters: method as in PMID 20627597; details: cited from earlier work
[2] = test system: HeLa; parameters: method as in PMID 27159418; details: cited from earlier work
[3] = test system: A549 cells; assay: Annexin V-FITC/PI flow cytometry apoptosis assay; format: cell-based, human; details: 4 μM, 24 h, control 11.41%
Protocol: We used flow cytometry analysis on A549 and HeLa cells for the quantitative apoptosis assay. As previously stated, cells were cultivated at 1.0 × 10^5 cells/ml and plated in 24-well culture plates (Corning) for 24 h. Cells were cultured for further 24 h after being treated with 4 μm of target drugs 3a and 3h. For analysis, the medium was discarded and cells were washed briefly in PBS, and then, the trypsinization protocol was carried out. Furthermore, cells were suspended in PBS and stained with annexin in V-FITC/PI according to the supplier technique (Sigma, USA, catalogue number: APOAF-20TST). After adding the reagents, the cells were allowed to incubate for 30 min at room temperature before being analyzed in PBS. The analysis was conducted on a BD FACS Accuri (BD Biosciences, USA), and the results were analyzed using FlowJo software (BD Biosciences, USA).[42]

[4] = test system: Ct-DNA; assay: Fluorescence emission titration; format: binding; details: DNA 10 μM, compound 10–80 μM
Protocol: Drug interactions with Ct-DNA have been studied using fluorescence assays. The experiments were achieved by varying drug concentration from 10 to 80 μM while keeping the concentration of DNA (10 μM) constant. Before making emission observation, the synthesized compound was incubated for 3 min with mixing DNA, after which emission titration was collected in Tris-buffer (pH 7.4) excitation at wavelength 260 nm, and the quenching results were analyzed using the Stern–Volmer equation (eq 3): [drawing 3] 3 Slit width has been kept constant at 10 nm during emission and excitation. The titration experiments were repeated three times (n = 3) to ensure consistent results.[50]−[52]

[5] = test system: Ct-DNA; assay: Cyclic voltammetry; format: binding; details: Tris-buffer, 100 mV s^–1, DNA 10–40 μM
Protocol: Using this experiment, a drug–DNA binding interaction has also been investigated. The solution’s pH was maintained before analysis, and the entire analytical equipment was built at 25 °C with a constant potential of 100 mV s^–1 scan rate and a voltage range of −1 to +1 V. The spectra of a test compound (60 μL) were recorded using a screen-printed electrode (SPE). These experiments were carried out in a 1:1 ferri/ferrocyanide solution ratio. Various concentrations of Ct-DNA (Tris-buffer) were used to further evaluate test compounds 3a and 3h. The working electrode is made of the test compound, whereas the counter and reference electrodes are made of gold-coated copper. Binding constants were obtained using eq 4: [drawing 4] 4 where I0 and I are the peak currents of compound and compound–DNA complexes, respectively.[56]

[6] = DPPH radical scavenging antioxidant assay; details: 1 h incubation in the dark
Protocol: The antioxidant activity of the 3a and 3h was determined using the DPPH ([…]) radical scavenging technique, as reported.[60],[73] In methanol, the DPPH radical has a purple color and has a strong absorption band with a maximum of 517 nm. Compound concentrations ranging from 1 to 4 μM were mixed with DPPH at a concentration of 10 μM. The mixtures were properly mixed and then incubated at room temperature for 1 h in the dark. The standard reference was ascorbic acid. As a control, DPPH in methanol was utilized. The % of DPPH radical scavenged was used to calculate the antioxidant activity of the compounds, which was calculated using eq 5: [drawing 5] 5 where Acontrol = DPPH absorbance; Asample = sample with DPPH absorbance.

[7] = test system: human primary normal lung cells (HFL-1); assay: MTT cytotoxicity assay, HFL-1; format: cell-based; details: HFL1, 24 h treatment
Protocol: (§1) The American type culture collection (ATCC, USA) provided human lung cancer cell line (A549), cervical cancer cell line (HeLa), and human primary normal lung cells (HFL-1) for this investigation. In a water-jacketed cell culture incubator, all of these cell types were cultured according to conventional culture conditions at 37 °C with 5% CO2. These cells were cultured in appropriate cell culture media. A549 cells were grown in DMEM media with 2 mM glutamine, HeLa cells were grown in Eagle’s minimum essential medium (EMEM) as recommended, whereas HFL-1 cells were also grown in F-12K. Fetal bovine serum 10% (FBS) was added to the entire medium. At a rate of 8000 cells were seeded in triplicate in a single 96-well plate for the MTT technique of cell death investigation. […] After the treatment period was finished, the media was removed, and each well was gently washed three times with PBS to clear any remaining residue just before the experiment. […] The plates were incubated at 37 °C for 4 h after the MTT was added. We used DMSO to remove crystals after the incubation period was completed. A hybrid multi-mode plate reader (BioTek, USA) with a microplate reader was used to measure absorbance at 570 nm. The percentage inhibition was calculated using eq 1: [drawing 1] 1 where ODtreated is the mean optical density (OD) of the treated cells and ODcontrol is the OD of the vehicle control cells (negative control).
(§2) With all of the experimental drugs, we conducted the MTT assay three times. Prism8 software (GraphPad) was used to determine the IC50 values of the various drugs, which were then expressed as a drug concentration (μM).

[8] = test system: EB-DNA complex (Ct-DNA); assay: Ethidium bromide dye displacement assay; format: binding; details: quenching of EB-DNA fluorescence
Text: Competitive fluorescence binding experiments utilizing ethidium bromide, a standard intercalation indicator, were used to evaluate the degree of molecular binding interaction mechanism of an active drug with Ct-DNA. […] The observable changes in the EB–DNA adduct’s emission spectrum as a function of quencher addition are particularly valuable for researching compound–DNA interactions. Fluorescence measurements were done in Tris-buffer at a 515 nm excitation wavelength in the range of 530–700 nm. Slit widths for both emission and excitation were set at about 10 nm.[54],[69]

[9] = test system: human cervical cancer cell (HeLa); assay: MTT cytotoxicity assay, HeLa; format: cell-based; details: for Selectivity Index HeLa: HFL-1 vs HeLa; for IC50: Homo sapiens, MTT, 24 h treatment, HeLa
Protocol: as §1, §2

[10] = test system: human lung cancer cell (A549); assay: MTT cytotoxicity assay, A549; format: cell-based; details: for Selectivity Index A549: HFL-1 vs A549; for IC50: Homo sapiens, MTT, 24 h treatment, A549
Protocol: as §1, §2

| Structure (SMILES) | IC50 [1] [µM] | IC50 [2] [µM] | cell death (sum of Q1+Q2+Q3) [3] [%] | Stern–Volmer constant KSV (emission titration) [4] | binding constant K (cyclic voltammetry) [5] | IC50 DPPH radical scavenging [6] [µg/mL] | IC50 [7] [µM] | Stern–Volmer constant KSV (EtBr displacement) [8] | Selectivity Index HeLa [9] | IC50 [9] [µM] | Selectivity Index A549 [10] | IC50 [10] [µM] |
| --- | --- | --- | --- | --- | --- | --- | --- | --- | --- | --- | --- | --- |
| COc1ccc(C2CC(c3ccc(C)c(C)c3)=NN2C(N)=S)cc1 (stereo not drawn) [Compound 1] | 0.08 | – | – | – | – | – | – | – | – | – | – | – |
| COc1cc(C2=NN(C(N)=O)C(c3cn(C)c4ccc(Br)cc34)C2)cc(OC)c1OC (stereo not drawn) [Compound 2] | – | 0.21 | – | – | – | – | – | – | – | – | – | – |
| COc1cccc(C2=NN(C(N)=O)C(c3cn(C)c4ccc(Br)cc34)C2)c1 (stereo not drawn) [Compound 3] | – | 0.25 | – | – | – | – | – | – | – | – | – | – |
| CN(C)c1ccc(C2CC(c3ccc(Cl)cc3)=NN2C(N)=S)cc1 (stereo not drawn) [Compound 3a] | – | – | 25.86 | 5.80 × 10^3 M^–1 | 1.25 × 10^4 | 0.132 ± 0.012 (≈ 0.368 µM) | 114.5 ± 0.01 | 1.84 × 10^4 M^–1 | 6.5 | 17.52 ± 0.09 | 8.4 | 13.5 ± 0.17 |
| CN(C)c1ccc(C2CC(c3cccc(Br)c3)=NN2C(N)=S)cc1 (stereo not drawn) [Compound 3b] | – | – | – | – | – | – | 227.98 ± 0.04 | – | 1.5 | 150.1 ± 0.24 | 1.0 | 222.3 ± 0.09 |
| CN(C)c1ccc(C2CC(c3cccc([N+](=O)[O-])c3)=NN2C(N)=S)cc1 (stereo not drawn) [Compound 3c] | – | – | – | – | – | – | 185.3 ± 0.21 | – | 1.4 | 123.6 ± 0.2 | 1.1 | 163.9 ± 0.07 |
| CN(C)c1ccc(C2CC(c3ccccc3Cl)=NN2C(N)=S)cc1 (stereo not drawn) [Compound 3d] | – | – | – | – | – | – | 217.03 ± 0.02 | – | 14.46 | 15 ± 0.46 | 1.8 | 118.7 ± 0.08 |
| Cc1ccc(C2=NN(C(N)=S)C(c3ccc(N(C)C)cc3)C2)cc1 (stereo not drawn) [Compound 3e] | – | – | – | – | – | – | 244.64 ± 0.05 | – | 17.4 | 14.1 ± 0.4 | – | 37.07 ± 0.14 |
| CN(C)c1ccc(C2CC(c3ccc(Br)cc3)=NN2C(N)=S)cc1 (stereo not drawn) [Compound 3f] | – | – | – | – | – | – | 194.33 ± 0.01 | – | 1.1 | 168.8 ± 0.36 | 2.0 | 94.18 ± 0.11 |
| CN(C)c1ccc(C2CC(c3ccc(Cl)cc3)=NN2C(N)=O)cc1 (stereo not drawn) [Compound 3g] | – | – | – | – | – | – | 26.94 ± 0.08 | – | 0.03 | 890.3 ± 0.22 | 0.4 | 59.74 ± 0.18 |
| CN(C)c1ccc(C2CC(c3cccc(Br)c3)=NN2C(N)=O)cc1 (stereo not drawn) [Compound 3h] | – | – | 20.60 | 4.28 × 10^3 M^–1 | 7.1 × 10^3 | 0.215 ± 0.025 (≈ 0.555 µM) | 173 ± 10 | 1.69 × 10^4 M^–1 | 7.1 | 24.1 ± 0.86 | 7.6 | 22.5 ± 0.25 |
| CN(C)c1ccc(C2CC(c3ccc([N+](=O)[O-])cc3)=NN2C(N)=O)cc1 (stereo not drawn) [Compound 3i] | – | – | – | – | – | – | 165.84 ± 0.03 | – | 2.0 | 80.7 ± 0.28 | 0.9 | 174.84 ± 0.05 |
| CN(C)c1ccc(C2CC(c3cccc4ccccc34)=NN2C(N)=S)cc1 (stereo not drawn) [Compound 3j] | – | – | – | – | – | – | 166.75 ± 0.03 | – | 0.8 | 194.2 ± 0.44 | 0.5 | 290.09 ± 0.14 |
| CN(C)c1ccc(C2CC(c3cccc4ccccc34)=NN2C(N)=O)cc1 (stereo not drawn) [Compound 3k] | – | – | – | – | – | – | 27.52 ± 0.06 | – | 0.2 | 96.46 ± 0.25 | 0.5 | 52.76 ± 0.28 |
| CCN(CC)c1ccc(C2CC(c3ccc(Br)cc3)=NN2C(N)=S)cc1 (stereo not drawn) [Compound 3l] | – | – | – | – | – | – | 185.45 ± 0.14 | – | 10.5 | 17.7 ± 0.42 | 4.2 | 43.93 ± 0.13 |
